In the NIST ThermoML archive (doi:10.1021/je800087p):
± gives the expanded uncertainty stated by the source.

How the values were obtained:
[1] = Liquid; Ebulliometric method (Recirculating still)
[2] = refractive index (Na D-line) (dimensionless); settings: 298.15 K; 101.3 kPa; Liquid; Standard Abbe refractometry

| Normal boiling temperature [1] [°C] | refractive index [2] | Compound |
| --- | --- | --- |
| 152.48 ± 0.1 | 1.48829 ± 0.00053 | CC(C)c1ccccc1 [isopropylbenzene] |
| 66.1 ± 0.1 | 1.40443 ± 0.0005 | C1CCOC1 [tetrahydrofuran] |
| 88.16 ± 0.1 | 1.41899 ± 0.00063 | C1CCOCC1 [tetrahydropyran] |
